Patent US11214556B1, “Method of treating colorectal cancer” (King Abdulaziz University, priority 2019, dated 2022)
Entries after “also recorded” stand apart in the source; their conditions may differ.

Legend:
[1] = system: HT-29 cells; test: SRB cytotoxicity assay, HT-29; type: cell-based, human; conditions: Homo sapiens, HT-29, monolayer, 72 h exposure, ± SEM
From the text: (§1) Based on the favorable pharmacologic and physicochemical properties of MOS-1512, it was selected as a new lead for the second subset of compounds (MOS-1812 to MOS-5112). The compounds in this series contained variable groups at R^1 and R^2 that were all tested against the three cancer cell lines (HCT-116, Caco-2 and HT-29).
(§2) Different cell lines were originally purchased from American type culture collection (ATCC, Wesel, Germany) and grown in the tissue culture lab of the Egyptian company for production of vaccines, sera and drugs (Vacsera, Giza, Egypt). The cells were transferred to our laboratory and maintained in the appropriate media as following. HCT-116, CACO-2, and HT-29 (human colon cancer cell lines) were maintained in Roswell Park Memorial Institute medium (RPMI1640) (Invitrogen, Carlsbad, Calif.). The mouse skin fibroblasts (C-166) and Baby Hamster Kidney fibroblasts (BHK) were grown in Dulbecco Modified Eagle's medium (DMEM). Both media were supplemented with 1% of […] of streptomycin, 100 units/mL of penicillin and 10% of heat-inactivated fetal bovine serum (Invitrogen, Carlsbad, Calif.) in a humidified, 5% (v/v) CO2 atmosphere at 37° C.
(§3) The sulforhodamine B (SRB) assays were performed according to Skehan, P.; Storeng, R.; Scudiero, D.; Monks, A.; McMahon, J.; Vistica, D.; Warren, J. T.; Bokesch, H.; Kenney, S.; Boyd, M. R., New colorimetric cytotoxicity assay for anticancer-drug screening. J Natl Cancer Inst 1990, 82 (13), 1107-12, incorporated herein by reference in its entirety. Briefly, exponentially growing cells were trypsinized, counted and seeded at the appropriate densities (5000 cells/100 μL/well) into 96-well microtiter plates. Cells were incubated in a humidified atmosphere at 37° C. for 24 h. Then, the cells were exposed to different compounds at the desired concentrations, (0.01, 0.1, 1, 10, and 100 μM) or to 1% dimethyl sulfoxide (DMSO) for 72 h. At the end of the treatment period, the media were removed, and the cells were fixed with 10% trichloroacetic acid at 4° C. for 1 hr. Following, the cells were washed with tap water four times and incubated with SRB 0.4% for 30 min. Excess dye was removed by washing repeatedly with 1% (vol/vol) acetic acid. The protein-bound dye was dissolved in 10 mM Tris base solution for (optical density) OD determination at 510 nm using a SpectraMax plus Microplate Reader (Molecular Devices, CA). Cell viability was expressed relative to the untreated control cells.

[2] = Solubility profile; type: physicochemical; conditions: stated in words together with C log P
[3] = system: HCT-116 cells; test: Nuclear fragmentation by DAPI staining; type: cell-based, human; conditions: 32 μM (IC50 concentration), 48 hours
Experimental: Several assays were performed to determine the apoptotic effect of the early lead MOS-1512 as well as the potent derivative MOS-4112 on HCT-116 cells. […] See Drutovic, D.; Chripkova, M.; Pilatova, M.; Kruzliak, P.; Perjesi, P.; Sarissky, M.; Lupi, M.; Damia, G.; Broggini, M.; Mojzis, J., Benzylidenetetralones, cyclic chalcone analogues, induce cell cycle arrest and apoptosis in HCT116 colorectal cancer cells. Tumour Biol 2014, 35 (10), 9967-75, incorporated herein by reference in its entirety.
Cells were cultured on sterile 22 mm^2 cover slips (Harvard Apparatus, MA, USA) in sterile six well plates at a density of 2×10^5 cells/well. […] The fixed and permeabilized cells nuclei were denatured with 2 N HCl (300 μl) for 10 min, washed three times more, and treated with 0.1 μg/ml 4′,6′-diamidino-2-phenylindole, dihydrochloride (DAPI) (Sigma-Aldrich, St. Louis, Mo., USA) (1:1000) in (phosphate-buffered saline-Tween 20 (PBST) for 1 hr. After staining, the cells were washed twice with PBS. The cover slips were then mounted on a glass slide with anti-fade mounting medium and viewed with an epifluorescence microscope, Leica, DM 5500 B (Leica, Buffalo Grove, Ill., USA) at a magnification of 60×, and data were captured digitally and quantified using the microscope provided software.

[4] = Acute oral toxicity (LD50), OECD guideline 423; type: in vivo; conditions: both sexes, Swiss albino, mouse, in vivo, po
From the text: (§4) Since compounds with electrophilic properties, e.g., MA are usually involved in a variety of toxic effects on mammalians, the general acute toxicity of 1512, 3712 and 4112 was investigated by determining the in vivo lethal dose (LD50) according to the Globally Harmonized Classification System (GHS) and following the Organization for Economic Cooperation and Development (OECD) guideline 423 (modified, adopted Mar. 23, 2006). As observed in the cellular assay, the compound safety was confirmed, as the LD50 for all compounds were between 2000-5000 mg/kg (Category 5). See Spielmann, H.; Genschow, E.; Liebsch, M.; Halle, W., Determination of the starting dose for acute oral toxicity (LD50) testing in the up and down procedure (UDP) from cytotoxicity data. ATLA 1999, 27 (6), 957-966, incorporated herein by reference in its entirety.
(§5) The experiment was conducted on 12 healthy Swiss albino mice (males and females) weighing 22-27 g and aged 8 to 10 weeks obtained from the Animal Station, Pharmacology Dept, Faculty of Pharmacy, King Abdulaziz University, Jeddah. See Shoieb, S. M.; Esmat, A.; Khalifa, A. E.; Abdel-Naim, A. B., Chrysin attenuates testosterone-induced benign prostate hyperplasia in rats. Food and Chemical Toxicology 2018, 111, 650-659, incorporated herein by reference in its entirety. All animals were kept at the regulated temperature (average 23° C.), air quality (Central air conditioning) and light (12-h light/dark cycles). Animals were provided free access to food pellets ad libitum and water. The experimental procedure was approved by the Research Ethics Committee, Faculty of Pharmacy, King Abdulaziz University prior to starting the laboratory work. Animals were humanely treated according to international and scientific principles. Changes other than vitality of the animals such as behavioral and food consumption habits were not observed in this study.
(§6) The compounds 1512, 3712 and 4112 of purity 95% or more (LC/MS) were prepared for this study as 10% suspension in water containing 0.5% tween 80.
(§7) The animals were distributed randomly into four groups (3 mice at each group). […] The second group received an oral dose of 2000 mg/Kg of the drug and observed after 24 h to count the deceased animals. According to the Guideline 423, when all animals were found alive, the same test was repeated (dose 2000 mg/kg) were given to the third group (3 animals) and observed for 24 h. All animals survived and therefore, a dose of 5000 mg/kg were administered to the fourth and final group.

[5] = system: Swiss albino mice; test: Acute oral toxicity (LD50), OECD guideline 423; type: in vivo; conditions: both, Swiss albino, mouse, in vivo, po, 24 h
From the text: as §4, §5, §6, §7

[6] = system: C-166 mouse skin fibroblasts; test: Selectivity versus normal C-166 fibroblasts; type: cell-based; conditions: HCT-116, Caco-2 and HT-29 versus C-166
From the text: FIG. 3A is a graph illustrating the dose-response curve of compound 1512 on HCT-116 cell lines and C-166 cell line;
See El-Araby, M. E.; Omar, A. M.; Khayat, M. T.; Assiri, H. A.; Al-Abd, A. M., Molecular Mimics of Classic P-Glycoprotein Inhibitors as Multidrug Resistance Suppressors and Their Synergistic Effect on Paclitaxel. PLoS One 2017, 12 (1), e0168938, incorporated herein by reference in its entirety.
Different cell lines were originally purchased from American type culture collection (ATCC, Wesel, Germany) and grown in the tissue culture lab of the Egyptian company for production of vaccines, sera and drugs (Vacsera, Giza, Egypt). The cells were transferred to our laboratory and maintained in the appropriate media as following. […]
The sulforhodamine B (SRB) assays were performed according to Skehan, P.; Storeng, R.; Scudiero, D.; Monks, A.; McMahon, J.; Vistica, D.; Warren, J. T.; Bokesch, H.; Kenney, S.; Boyd, M. R., New colorimetric cytotoxicity assay for anticancer-drug screening. […] Briefly, exponentially growing cells were trypsinized, counted and seeded at the appropriate densities (5000 cells/100 μL/well) into 96-well microtiter plates. […] The protein-bound dye was dissolved in 10 mM Tris base solution for (optical density) OD determination at 510 nm using a SpectraMax plus Microplate Reader (Molecular Devices, CA). […]

[7] = system: CACO-2 cells; test: SRB cytotoxicity assay, CACO-2; type: cell-based, human; conditions: Homo sapiens, Caco-2, 72 h exposure, ± SEM
From the text: as §1, §2, §3

[8] = system: HCT-116 cells; test: SRB cytotoxicity assay, HCT-116; type: cell-based, human; conditions: for IC50: Homo sapiens, HCT-116, SRB assay, 72 h exposure, ± SEM
Experimental: Compounds in this study were tested against colorectal cancer cell line HCT-116, using sulforhodamine-B (SRB) assay. See Skehan, P.; Storeng, R.; Scudiero, D.; Monks, A.; McMahon, J.; Vistica, D.; Warren, J. T.; Bokesch, H.; Kenney, S.; Boyd, M. R., New colorimetric cytotoxicity assay for anticancer-drug screening. J Natl Cancer Inst 1990, 82 (13), 1107-12, incorporated herein by reference in its entirety. […] However, it was clear that compounds bearing hydrophobic aliphatic groups such as MOS-1505 and MOS-1512 are clearly favored in providing anticancer activities. […] The N-aryl substituents were less advantageous in both potency and solubility.
as §2, §3

[9] = system: CRC cell lines (HCT-116, Caco-2 and HT-29); test: Cytotoxic activities against CRC cell lines (statement over three lines); type: cell-based; conditions: Homo sapiens
From the text: as §1, §2, §3

[10] = system: HT-29 colon cancer cell spheroids (cancer stem cells); test: Primary (1°) colonosphere formation assay; type: cell-based, human
Experimental: Compound 4112 and another potent compound 3712 were also evaluated for their ability to inhibit cancer stem cell proliferation using a primary (1°) colonosphere formation assay. In this assay, HT-29 colon cancer cells were grown in low adhesion plates to form spheres as previously described. See Patel, N. J.; Karuturi, R.; Al-Horani, R. A.; Baranwal, S.; Patel, J.; Desai, U. R.; Patel, B. B., Synthetic, non-saccharide, glycosaminoglycan mimetics selectively target colon cancer stem cells. ACS Chem Biol 2014, 9 (8), 1826-33, incorporated herein by reference in its entirety. Wells treated with the inventive compounds were compared to vehicle treated cells for primary sphere growth inhibition after 5 days of incubation. […] Of note, monolayer growth conditions are ideally suited for examining cellular proliferation, whereas spheroid growth conditions examine cancer stem cell growth and self-renewal properties.
For primary sphere formation, cells were plated in nontreated, low adhesion, 96 wells plate at the concentration of 100 cells/100 μL/well in stem cell media (SCM) that consisted of DMEM:F12:AA (Gibco), supplemented with 1×B27 (Gibco), 20 ng/mL epidermal growth factor, and 10 ng/mL fibroblast growth factor (Sigma). After 4 h of incubation, vehicle (control) or 3712 and 4112 at the desired concentrations were added to each well (at least in triplicates for each sample). On day five, numbers of spheres ranging from […] in diameter were counted using phase contrast microscope and percent inhibition was calculated compared to control.

SMILES	IC50 [1] [µM]	solubility [2]	nuclear structure/morphology, DAPI staining [3]	LD50 at 24 h [4] [mg/kg]	GHS acute toxicity category [5]	selectivity in killing cancer cells versus normal cells [6]	IC50 [7] [µM]	IC50 [8] [µM]	cancer cell resistance (R-value) ([8]; dose-response curve, FIG. 3A) [%]	IC50 [9] [µM]	IC50 ([10]; Homo sapiens, 120 h, HT-29 spheres, 5 days of incubation) [µM]	inhibition of colon cancer spheroids formation ([10]; spheroids >50 μm, 5 days)
CCCNC(=O)/C(=C/c1ccccc1)NC(=O)/C=C/c1ccccc1 [Compound 1512, (Z)-2-[(E)-cinnamamido]-3-phenyl-N-propylacrylamide]	35.5 ± 1.7	better solubility profile	very strong blue fluorescence; also recorded: nuclear condensation and fragmentation	2000 to 5000	Category 5	high selectivity	38 ± 0.87	32 ± 2.6	8.2	–	–	–
CCCNC(=O)/C(=C/c1c[nH]c2ccccc12)NC(=O)C=Cc1ccccc1 [Compound 3712, (Z)-2-cinnamamido-3-(1H-indol-3-yl)-N-propylacrylamide]	2.36 ± 0.04	–	–	2000 to 5000	Category 5	–	2.1 ± 0.03	1.65 ± 0.05	–	< 5	21.1 ± 1.3	dose-dependent inhibition
